Results published in the supplement of paper PMC10307832.

Tests used:
Experiment in all cases: relative viability (nuclei count vs DMSO), 5 days (fraction); higher = more cells survive
NCI-H1623 = test system: NCI-H1623
Summary of the method: (§1)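 The day after seeding in 1536-well plates, lung cancer cell lines were treated by pin tool with a single drug, or with a fixed anchor-drug dose together with five library-drug doses (not always all listed) in √10 steps. After 5 days, a combined fix-and-stain solution (final 0.05% Triton X-100, 1% formaldehyde, 1 ug/ml Hoechst) was added. Nuclei counted on 4× images gave relative viability as treated counts over vehicle counts, reported as the median of duplicate plates.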

SK-MES-1 = test system: SK-MES-1
Summary of the method: as §1

ChaGo-K-1 = test system: ChaGo-K-1
Summary of the method: as §1

NCI-H1651 = test system: NCI-H1651
Summary of the method: as §1

NCI-H522 = test system: NCI-H522
Summary of the method: as §1

NCI-H1648 = test system: NCI-H1648
Summary of the method: as §1

A549 = test system: A549
Summary of the method: as §1

NCI-H1299 = test system: NCI-H1299
Summary of the method: as §1

Calu-6 = test system: Calu-6
Summary of the method: as §1

IA-LM = test system: IA-LM
Summary of the method: as §1

NCI-H1703 = test system: NCI-H1703
Summary of the method: as §1

EBC-1 = test system: EBC-1
Summary of the method: as §1

## O=C(O)c1ccc(-c2c[nH]c3ncc(-c4ccccc4)cc23)cc1C1CCCC1 + Cc1cc(Nc2cc(N3CCN(C)CC3)nc(Sc3ccc(NC(=O)C4CC4)cc3)n2)n[nH]1 [Tozasertib] (partner 0.1 µM)
NCI-H1623; first compound 0.04 µM
  relative viability: 0.421
NCI-H1623; first compound 0.1265 µM
  relative viability: 0.488
NCI-H1623; first compound 0.4 µM
  relative viability: 0.481
NCI-H1623; first compound 1.265 µM
  relative viability: 0.398
SK-MES-1; first compound 0.04 µM
  relative viability: 0.93
SK-MES-1; first compound 0.1265 µM
  relative viability: 0.973
SK-MES-1; first compound 0.4 µM
  relative viability: 0.748
SK-MES-1; first compound 1.265 µM
  relative viability: 0.396
ChaGo-K-1; first compound 0.04 µM
  relative viability: 0.213
ChaGo-K-1; first compound 0.1265 µM
  relative viability: 0.225
ChaGo-K-1; first compound 0.4 µM
  relative viability: 0.242
ChaGo-K-1; first compound 1.265 µM
  relative viability: 0.215
NCI-H1651; first compound 0.04 µM
  relative viability: 0.689
NCI-H1651; first compound 0.1265 µM
  relative viability: 0.708
NCI-H1651; first compound 0.4 µM
  relative viability: 0.559
NCI-H1651; first compound 1.265 µM
  relative viability: 0.481
NCI-H522; first compound 0.04 µM
  relative viability: 0.537
NCI-H522; first compound 0.1265 µM
  relative viability: 0.654
NCI-H522; first compound 0.4 µM
  relative viability: 0.579
NCI-H522; first compound 1.265 µM
  relative viability: 0.498
NCI-H1648; first compound 0.04 µM
  relative viability: 0.545
NCI-H1648; first compound 0.1265 µM
  relative viability: 0.635
NCI-H1648; first compound 0.4 µM
  relative viability: 0.439
NCI-H1648; first compound 1.265 µM
  relative viability: 0.378

## O=C(O)c1ccc(-c2c[nH]c3ncc(-c4ccccc4)cc23)cc1C1CCCC1 + COc1cc2c(Oc3ccc(NC(=O)C4(C(=O)Nc5ccc(F)cc5)CC4)cc3F)ccnc2cc1OCCCN1CCOCC1 [Foretinib] (partner 0.25 µM)
NCI-H1623; first compound 0.04 µM
  relative viability: 0.859
NCI-H1623; first compound 0.1265 µM
  relative viability: 0.747
NCI-H1623; first compound 0.4 µM
  relative viability: 0.835
NCI-H1623; first compound 1.265 µM
  relative viability: 0.798
A549; first compound 0.04 µM
  relative viability: 0.944
A549; first compound 0.1265 µM
  relative viability: 1.07
A549; first compound 0.4 µM
  relative viability: 1.07
A549; first compound 1.265 µM
  relative viability: 0.628
NCI-H1299; first compound 0.04 µM
  relative viability: 1.12
NCI-H1299; first compound 0.1265 µM
  relative viability: 1.14
NCI-H1299; first compound 0.4 µM
  relative viability: 1.04
NCI-H1299; first compound 1.265 µM
  relative viability: 0.956
SK-MES-1; first compound 0.04 µM
  relative viability: 0.963
SK-MES-1; first compound 0.1265 µM
  relative viability: 1.01
SK-MES-1; first compound 0.4 µM
  relative viability: 0.918
SK-MES-1; first compound 1.265 µM
  relative viability: 0.794
Calu-6; first compound 0.04 µM
  relative viability: 0.872
Calu-6; first compound 0.1265 µM
  relative viability: 0.904
Calu-6; first compound 0.4 µM
  relative viability: 0.815
Calu-6; first compound 1.265 µM
  relative viability: 0.706
ChaGo-K-1; first compound 0.04 µM
  relative viability: 0.995
ChaGo-K-1; first compound 0.1265 µM
  relative viability: 0.928
ChaGo-K-1; first compound 0.4 µM
  relative viability: 0.833
ChaGo-K-1; first compound 1.265 µM
  relative viability: 0.863
IA-LM; first compound 0.04 µM
  relative viability: 1.23
IA-LM; first compound 0.1265 µM
  relative viability: 1.25
IA-LM; first compound 0.4 µM
  relative viability: 1.15
IA-LM; first compound 1.265 µM
  relative viability: 0.864
NCI-H1703; first compound 0.04 µM
  relative viability: 0.381
NCI-H1703; first compound 0.1265 µM
  relative viability: 0.313
NCI-H1703; first compound 0.4 µM
  relative viability: 0.348
NCI-H1703; first compound 1.265 µM
  relative viability: 0.372
NCI-H1651; first compound 0.04 µM
  relative viability: 0.786
NCI-H1651; first compound 0.1265 µM
  relative viability: 0.806
NCI-H1651; first compound 0.4 µM
  relative viability: 0.792
NCI-H1651; first compound 1.265 µM
  relative viability: 0.607
EBC-1; first compound 0.04 µM
  relative viability: 0.112
EBC-1; first compound 0.1265 µM
  relative viability: 0.123
EBC-1; first compound 0.4 µM
  relative viability: 0.119
EBC-1; first compound 1.265 µM
  relative viability: 0.101

## C=C1C(=O)O[C@@H](CCCCCCCC)[C@@H]1C(=O)O [C-75] + COc1cc2c(Oc3ccc(NC(=O)C4(C(=O)Nc5ccc(F)cc5)CC4)cc3F)ccnc2cc1OCCCN1CCOCC1 [Foretinib] (partner 0.25 µM)
NCI-H1623; first compound 0.08 µM
  relative viability: 0.861
NCI-H1623; first compound 0.253 µM
  relative viability: 1.09
NCI-H1623; first compound 0.8 µM
  relative viability: 0.747
NCI-H1623; first compound 2.53 µM
  relative viability: 0.686
NCI-H1623; first compound 8 µM
  relative viability: 0.993
A549; first compound 0.08 µM
  relative viability: 0.946
A549; first compound 0.253 µM
  relative viability: 0.977
A549; first compound 0.8 µM
  relative viability: 1.01
A549; first compound 8 µM
  relative viability: 0.869
NCI-H1299; first compound 0.08 µM
  relative viability: 1.12
NCI-H1299; first compound 0.253 µM
  relative viability: 1.03
NCI-H1299; first compound 0.8 µM
  relative viability: 1.04
NCI-H1299; first compound 2.53 µM
  relative viability: 1.04
NCI-H1299; first compound 8 µM
  relative viability: 1.11
SK-MES-1; first compound 0.08 µM
  relative viability: 1.06
SK-MES-1; first compound 0.253 µM
  relative viability: 0.773
SK-MES-1; first compound 0.8 µM
  relative viability: 0.978
SK-MES-1; first compound 8 µM
  relative viability: 0.925
Calu-6; first compound 0.08 µM
  relative viability: 0.875
Calu-6; first compound 0.253 µM
  relative viability: 0.914
Calu-6; first compound 0.8 µM
  relative viability: 0.81
Calu-6; first compound 2.53 µM
  relative viability: 0.634
Calu-6; first compound 8 µM
  relative viability: 0.907
ChaGo-K-1; first compound 0.08 µM
  relative viability: 0.915
ChaGo-K-1; first compound 0.253 µM
  relative viability: 0.887
ChaGo-K-1; first compound 0.8 µM
  relative viability: 0.894
ChaGo-K-1; first compound 2.53 µM
  relative viability: 0.925
ChaGo-K-1; first compound 8 µM
  relative viability: 0.874
IA-LM; first compound 0.08 µM
  relative viability: 1.14
IA-LM; first compound 0.253 µM
  relative viability: 1.38
IA-LM; first compound 0.8 µM
  relative viability: 1.02
IA-LM; first compound 2.53 µM
  relative viability: 1.25
IA-LM; first compound 8 µM
  relative viability: 1.01
NCI-H1703; first compound 0.08 µM
  relative viability: 0.399
NCI-H1703; first compound 0.253 µM
  relative viability: 0.334
NCI-H1703; first compound 0.8 µM
  relative viability: 0.325
NCI-H1703; first compound 2.53 µM
  relative viability: 0.355
NCI-H1703; first compound 8 µM
  relative viability: 0.388
NCI-H1651; first compound 0.08 µM
  relative viability: 0.83
NCI-H1651; first compound 0.253 µM
  relative viability: 0.944
NCI-H1651; first compound 0.8 µM
  relative viability: 0.725
NCI-H1651; first compound 2.53 µM
  relative viability: 0.668
NCI-H1651; first compound 8 µM
  relative viability: 0.958
EBC-1; first compound 0.08 µM
  relative viability: 0.101
EBC-1; first compound 0.253 µM
  relative viability: 0.11
EBC-1; first compound 0.8 µM
  relative viability: 0.107
EBC-1; first compound 8 µM
  relative viability: 0.0983
